Where “and” joins values, the source holds several entries; their conditions need not be identical. Equal entries are not always repeated. Some results are limits rather than exact numbers.

The subject of experiment [1] is HCT-116 RAD21-mAC cells. The experiment can be described thus: In situ Hi-C: loops and loop domains (HiCCUPS, APA), auxin treatment and withdrawal time course. In kind it is cell-based, human. An excerpt: To examine loop domains, Applicants used in situ Hi-C(Rao et al., 2014), which combines DNA-DNA proximity ligation and high-throughput sequencing to create maps showing the frequency of physical contact between all pairs of loci across the genome. Loop domains are manifest in Hi-C maps as a bright “peak” pixel (indicating the link between the two loop anchors) at the corner of a bright square (indicating the presence of a contact domain).
To see if these changes were reversible, Applicants performed a time-course analysis in which untreated cells were exposed to auxin for six hours, after which auxin was withdrawn (FIG. 2B, FIG. 9B). Low resolution Hi-C was performed immediately before treatment, as well as at a series of time points during treatment (at 20, 40, 60, 240, and 360 minutes) and after withdrawal (at 20, 40, 60, 180, 360, 1080, and 1440 minutes). To assess whether the anchors of the loop domains seen in the pre-treatment data continued to be linked (that is, co-located in space) subsequently, Applicants used a method called Aggregate Peak Analysis (APA) (Durand et al., 2016b), which superimposes the signals from a set of peak pixels, thus allowing Applicants to observe an aggregate signal even in sparse datasets where individual signals cannot be resolved (FIG. 2B). The APA signal was initially strong, but was gone by 40 minutes after treatment, and remained absent throughout the rest of the treatment period (FIG. 2B, 9B). The disappearance of the loop-domain links closely mirrored the depletion of cohesin levels in the samples during the treatment period, as ascertained by measuring mClover fluorescence (FIG. 8).
For our time course experiments, cells were treated with 500 uM IAA and crosslinked with 1% formaldehyde directly in wells of a 6-well plate at various time points after treatment (20, 40, 60, 240, 360 minutes). For the auxin withdrawal experiments, after 6 hours treatment with 500 um IAA, the cells were trypsinized, washed twice in fresh media and replated in 6-well plates in fresh media. They were then crosslinked with 1% formaldehyde directly in the 6-well plates at various time points after auxin withdrawal (20, 40, 60, 180, 360, 1080, 1440 minutes).
Applicants generated 69 in situ Hi-C libraries using the MboI restriction enzyme following the protocol described in (Rao et al., 2014) without modifications. In brief, the in situ Hi-C protocol involves crosslinking cells with formaldehyde, permeabilizing them with nuclei intact, digesting DNA with a suitable 4-cutter restriction enzyme, filling the 5′-overhangs while incorporating a biotinylated nucleotide, ligating the resulting blunt-end fragments, shearing the DNA, capturing the biotinylated ligation junctions with streptavidin beads, and analyzing the resulting fragments with paired-end sequencing.
Applicants generated 7 libraries each for the main maps (untreated HCT-116 RAD21-mAC cells and HCT-116 RAD21-mAC cells treated for 6 hours with IAA) comprised of two sets of biological replicates each (three and four technical replicate libraries per biological replicate). In addition, Applicants generated four technical replicate libraries each for untreated and treated HCT-116 RAD21-mAC cells after cell synchronization and arrest. Applicants also generated an additional 5 libraries from untreated HCT-116 RAD21-mAC cells and 4 libraries from HCT-116 RAD21-mAC cells treated for 6 hours with IAA (two additional biological replicates each) that were not included in our main maps, but were used for analysis of higher-order contacts (see below). Applicants generated four libraries (two biological replicates) for each of our loop-resolution maps along the auxin withdrawal time course (20, 40, 60 and 180 mins after auxin withdrawal). Finally, Applicants generated two technical replicate libraries per time point of our auxin treatment and withdrawal time course. […]

Experiment [2] deals with HCT-116 RAD21-mAC cells. The experiment can be described thus: 3D-APA of higher-order Hi-C contacts between cohesin-independent loop anchors. Conditions: auxin-treated data, 131 intrachromosomal trios; none in untreated. In kind it is cell-based, human. An excerpt:
To probe this question, Applicants examined concatemers—that is, Hi-C reads which bring together 3 or more loci, and indicate that the loci in question were simultaneously co-located in a particular cell during the Hi-C experiment. Applicants identified 57 million unique “triples,” which bring together 3 loci; 32 million unique quadruples, and 130 thousand quintuples (FIG. 5B, see Methods). Instead of a 2-dimensional heatmap, concatemers are naturally represented as an n-dimensional matrix, or tensor, showing the collision frequency (i.e. the frequency of simultaneous physical contact) between any set of n loci in the genome (FIG. 5C). Hubs involving n loci manifest in the n-dimensional contact tensor as peaks in collision frequency with respect to the local n-dimensional neighborhood. […]
Analysis of higher order contacts. […] The Juicer pipeline (Durand, et al, 2016b) separately outputs abnormal chimeric read pairs (i.e. read pairs that map to more than 2 loci). Applicants combined all of the data from untreated RAD21-mAC cells and all our data from treated RAD21-mAC cells (unsynchronized and synchronized/arrested), parsed the chimeric abnormal reads and deduped them (using the same deduping procedure used in Juicer, only applied to three, four or five positions, rather than just two), retaining unique reads that mapped to three or more positions with MAPQ>=10. […]

With `O=C(O)Cc1c[nH]c2ccccc12` [auxin, indole-3-acetic acid], in experiment [1] (10 kb resolution, >300 kb, untreated 2.09), the “APA score for all loops after auxin treatment” value is recorded as 0.78. The “APA score for loop domains after auxin treatment” value in experiment [1] (10 kb resolution, >300 kb, untreated 2.10) turned out to be 0.78. In experiment [1] (2,140 in untreated cells, all 9 false positives), the “number of loop domains found after auxin treatment” value turned out to be 9. Also, in experiment [1] (after 6 hours auxin), the “time after auxin withdrawal by which APA signal largely recovered” value was no more than 1 h and the “time after auxin withdrawal with strong loop domain signal” value is no more than 60 min. Also, the “number of loops annotated in auxin-treated cells” value in experiment [1] (default HiCCUPS 5, 10, 25 kb, 3,170 in untreated) amounted to 81. In addition, the “loops lost after auxin treatment” value in experiment [1] (default HiCCUPS parameters) is > 97% and ~98%. Besides, in experiment [1] (fast loop domains), the “time after auxin withdrawal at which reformation of fast loop domains is apparent” value lay in the range of 20 to 40 min. In addition, the “time after auxin withdrawal until reformation of slow loop domains is seen” value in experiment [1] (slow loop domains) is 3 h. The “collisions in the center voxel of the 3D APA cube (three cohesin-independent loop anchors)” value in experiment [2] came out at 11.

The record behind these values is patent US20200255828A1, “METHODS AND COMPOSITIONS FOR ALTERING FUNCTION AND STRUCTURE OF CHROMATIN LOOPS AND/OR DOMAINS” (THE BROAD INSTITUTE, INC., priority 2017, published 2020).
